Assay results as given in patent publication US20080070987A1, “META-XYLYLENEDIAMINE VANADATE SALTS” (priority 2006, published 2008).

Legend:
Human SSAO/VAP-1 = molecular target: T1, Human SSAO/VAP-1 (Homo sapiens, UniProt Q16853); assay: Fluorimetric detection of SSAO-mediated H2O2 formation (Amplex Red), human recombinant VAP-1; format: biochemical; details: production of hydrogen peroxide; compounds at 1 mM
T1 sequence (Q16853 1-763): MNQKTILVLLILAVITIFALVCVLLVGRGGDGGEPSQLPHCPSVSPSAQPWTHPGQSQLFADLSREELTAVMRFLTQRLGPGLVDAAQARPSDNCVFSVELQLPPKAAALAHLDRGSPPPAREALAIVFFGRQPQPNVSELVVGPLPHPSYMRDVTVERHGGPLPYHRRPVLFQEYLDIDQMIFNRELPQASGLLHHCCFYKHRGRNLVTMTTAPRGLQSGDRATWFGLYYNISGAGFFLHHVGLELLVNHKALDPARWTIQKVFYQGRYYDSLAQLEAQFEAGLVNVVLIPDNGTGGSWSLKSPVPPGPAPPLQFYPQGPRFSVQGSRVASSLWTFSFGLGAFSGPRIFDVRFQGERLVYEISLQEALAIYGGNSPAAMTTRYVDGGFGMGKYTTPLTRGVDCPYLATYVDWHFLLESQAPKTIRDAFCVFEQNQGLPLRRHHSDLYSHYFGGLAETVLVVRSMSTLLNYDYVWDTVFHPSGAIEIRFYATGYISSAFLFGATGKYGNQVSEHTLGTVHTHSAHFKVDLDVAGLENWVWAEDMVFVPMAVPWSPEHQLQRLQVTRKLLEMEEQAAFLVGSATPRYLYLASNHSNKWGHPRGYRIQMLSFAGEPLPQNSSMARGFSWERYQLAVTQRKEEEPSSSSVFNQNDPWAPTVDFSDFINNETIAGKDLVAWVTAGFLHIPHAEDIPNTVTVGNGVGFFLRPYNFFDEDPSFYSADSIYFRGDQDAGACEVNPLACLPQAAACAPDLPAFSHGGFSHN
Experimental: (§1) The SSAO activity of human recombinant VAP-1 (0.1 μg prot/assay) and mouse adipose tissue membranes (1 μg prot/assay) was measured using Amplex Red Reagent, a highly sensitive and stable probe for H2O2. The reaction was performed in 200 μL of 0.2 mol/l phosphate buffer at pH 7.4 for 50 min at 37° C. in black non-phosphorescent microplates (Nunc). Catalytic reaction was initiated by the addition of the amines indicated as putative SSAO substrates and H2O2-detecting mixture containing horseradish peroxidase and Amplex Red, as previously described. Fluorescence intensity was measured (excitation, 545 nm, 590 nm, Bio-Tek fluorescence plate reader) and H2O2 concentration was calculated form calibration curves generated by serial dilutions of standard H2O2. Fluorescence readings were performed every 5 min. […] To test amines as putative SSAO inhibitors, they were pre-incubated for 20 min with semicarbazide, and their percentage of inhibition was calculated by referring to SSAO activity produced by benzylamine. The kinetic parameters Km and Vmax were calculated using appropriate non-linear curve-fitting formula based on the Michaelis-Menten equation and using GraphPad Prism 4.0 software.

Mouse SSAO/VAP-1 = molecular target: T2, Mouse SSAO/VAP-1 (Mus musculus, UniProt O70423); assay: Fluorimetric detection of SSAO-mediated H2O2 formation (Amplex Red), mouse adipose tissue membranes; format: biochemical; details: production of hydrogen peroxide; compounds at 100 μM
T2 construct: from tissue; host or cells: internal adipose tissue membranes of Swiss mice
T2 sequence (O70423 1-765): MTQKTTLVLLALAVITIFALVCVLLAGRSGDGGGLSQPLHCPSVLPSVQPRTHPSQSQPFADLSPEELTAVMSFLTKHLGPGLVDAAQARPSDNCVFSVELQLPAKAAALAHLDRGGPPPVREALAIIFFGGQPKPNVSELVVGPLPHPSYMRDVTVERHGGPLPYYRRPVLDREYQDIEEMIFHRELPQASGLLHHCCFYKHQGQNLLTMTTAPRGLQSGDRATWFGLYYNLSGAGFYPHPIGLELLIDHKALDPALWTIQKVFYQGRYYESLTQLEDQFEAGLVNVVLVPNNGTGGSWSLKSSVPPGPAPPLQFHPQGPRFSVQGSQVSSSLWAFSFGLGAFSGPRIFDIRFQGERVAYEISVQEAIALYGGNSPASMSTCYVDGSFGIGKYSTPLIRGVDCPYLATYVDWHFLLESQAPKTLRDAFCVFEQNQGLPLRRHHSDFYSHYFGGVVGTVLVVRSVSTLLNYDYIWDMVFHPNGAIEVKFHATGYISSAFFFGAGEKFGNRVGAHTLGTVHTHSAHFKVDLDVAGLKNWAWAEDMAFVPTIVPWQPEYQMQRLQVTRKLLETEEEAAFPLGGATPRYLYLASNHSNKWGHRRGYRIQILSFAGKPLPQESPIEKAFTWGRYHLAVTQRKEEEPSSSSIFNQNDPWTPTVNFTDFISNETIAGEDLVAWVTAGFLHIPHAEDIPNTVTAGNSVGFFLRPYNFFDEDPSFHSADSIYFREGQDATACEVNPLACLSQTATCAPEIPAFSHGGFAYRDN
Experimental: Internal adipose tissue was obtained from Swiss mice weighing between 20 to […]. […] The lysates were then centrifuged at 5000 g at 4° C. for 15 min to eliminate the fat cake and non-homogenized material, and supernatants were collected and centrifuged at 200000 g for 2 h at 4° C. Pelleted membranes were resuspended in 30 mmol/l HEPES and stored at −80° C. until use. Protein concentrations were measured by the Bradford method with γ-globulin as standard.
as §1

isolated rat adipocytes = assay: Glucose (2-deoxyglucose) transport in isolated rat adipocytes; format: cell-based, Wistar rats; details: for stimulation of glucose transport (2-DG uptake), in words: 45 min incubation; for effect of semicarbazide on the stimulation of glucose transport: 1 mM semicarbazide
Experimental: FIG. 1 is a graphical illustration of the hexaquis(benzylammonium) decavanadate effects on glucose transport in isolated rat adipocytes. In this Figure, V corresponds to the rate of 2-deoxyglucose transport (expressed relative to the basal rate), and the results are mean +standard error of the mean (SEM). The adipocytes were incubated in the absence of stimulants in the following conditions: basal (1); in the presence of 100 nM insulin (2); in the presence of hexaquis(benzylammonium) decavanadate at concentrations of 0.5 μM (3), 1 μM (4), 2.5 μM (5), 5 μM (6), 10 μM (7), 25 μM (8), 50 μM (9), and 100 μM (10). The cells were also incubated in the presence of the semicarbazide inhibitor (1 mM), and 10 μM hexaquis(benzylammonium) decavanadate (11), 25 μM of hexaquis(benzylammonium) decavanadate (12) or 50 μM hexaquis(benzylammonium) decavanadate (13). In parallel, the cells were incubated in presence of 100 μM of sodium vanadate and 100 μM of benzylamine, in the absence (14) or in the presence of 1 mM of semicarbazide (15).
FIG. 2 is a graphical illustration of the effects of hexaquis(benzylammonium) decavanadate, pentaquis(benzylammonium) decavanadate and tetraquis(benzylammonium) decavanadate on glucose transport in isolated rat adipocytes. V corresponds to the rate of 2-deoxyglucose uptake (expressed as relation with basal group), and the results are mean +standard error mean. The adipocytes were incubated in the absence of stimulants in the following conditions: basal (1); in the presence of 100 nM of insulin (2); in the presence of hexaquis(benzylammonium) decavanadate at concentrations of 10 μM (3) and 25 μM (4), pentaquis(benzylammonium) decavanadate at concentrations of 10 μM (8) and 25 μM (9), and tetraquis(benzylammonium) decavanadate at concentrations of 10 μM (11) and 25 μM (12). The cells were also incubated in the presence of the semicarbazide inhibitor (1 mM) and, 25 μM of hexaquis(benzylammonium) decavanadate (5), 25 μM of pentaquis(benzylammonium) decavanadate (10) or 25 μM of tetraquis(benzylammonium) decavanadate (13). In parallel, the cells were incubated in the presence of 100 μM of sodium vanadate (6) or in the presence of 250 μM of sodium vanadate (7).
Adipose cells from Wistar rats were incubated for 45 minutes in basal conditions (Basal) or in the presence of 100 nM insulin (Ins) and different concentrations of. hexaquis(benzylammonium) decavanadate (B6V10) in the absence or in the presence of 1 mM semicarbazide (SCZ). Subsequently, 2-DG transport was measured over a 5 min. interval.
The effects of the three tested compounds (B6V10, B5V10 and B4V10) were compared. Adipose cells from Wistar rats were incubated for 45 minutes in basal conditions (Basal) or in the presence of 100 nM insulin (Ins), and different concentrations of decavanadate (V10), hexaquis(benzylammonium) decavanadate (B6V10), pentaquis(benzylammonium) decavanadate (B5V10) or tetraquis(benzylammonium) decavanadate (B4V10) in the absence or in the presence of 1 mM semicarbazide (SCZ). 2-DG transport was measured over 5 min. intervals.
In additional experiments, compounds shown in FIG. 6A, 2-(4-fluoro-phenyl)ethylamine (compound A), 3-phenylpropylamine (compound B), 4-fluoro-benzylamine (compound C) and 4-phenylbutylamine (compound D) were assessed using the experimental methods set forth above for the capacity to stimulate 2-DG uptake in isolated rat adipocytes. Adipose cells from Wistar rats were incubated for 45 minutes in basal conditions (Basal) or in the presence of 100 nM insulin (Ins), and different concentrations of vanadium salts of 2-(4-fluoro-phenyl)-ethylamine (compound A), 3-phenyl-propylamine (compound B), 4-fluoro-benzylamine (compound C) and 4-phenyl-butylamine (compound D). 2-DG transport was measured over 5 min.
The effects of incubation with semicarbazide or phosphatidylinositol 3-kinase inhibitors were also investigated. […]

Compound	Human SSAO/VAP-1 activity % relative to benzylamine (Human SSAO/VAP-1) [%]	Mouse SSAO/VAP-1 activity % relative to benzylamine (Mouse SSAO/VAP-1) [%]	stimulation of glucose transport (2-DG uptake), in words (isolated rat adipocytes)	other results
NCc1ccccc1 [Example 1, benzylamine, reference compound]	100	100	–	–
CC(=O)NCc1cccc(CN)c1 [Example 2, N-(3-(aminomethyl)benzyl)acetamide]	3 ± 1	16 ± 4	–	–
CCC(=O)NCc1cccc(CN)c1 [Example 3, N-(3-(aminomethyl)benzyl)propionamide]	4 ± 1	27 ± 1	–	–
NCc1cccc(CNC(=O)CI)c1 [Example 4, N-(3-(aminomethyl)benzyl)-2-iodoacetamide]	38 ± 3	61 ± 5	–	–
C=CCOC(=O)NCc1cccc(CN)c1 [Example 5, allyl 3-(aminomethyl)benzylcarbamate]	21 ± 1	49 ± 3	–	–
NCc1cccc(CNC(=O)c2ccccc2)c1 [Example 6, N-(3-(aminomethyl)benzyl)benzamide]	17 ± 1	58 ± 4	–	–
CC(=O)N[C@H](C(=O)NCc1cccc(CN)c1)c1ccccc1 [Example 7, (S)-2-acetamido-N-(3-(aminomethyl)benzyl)-2-phenylacetamide]	2 ± 1	13 ± 3	–	–
Cc1ccc(S(=O)(=O)NCc2cccc(CN)c2)cc1 [Example 8, N-(3-(aminomethyl)benzyl)-4-methylbenzenesulfonamide]	12 ± 2	14 ± 3	–	–
NCc1cccc(CNC(=O)c2ccc(O)cc2)c1 [Example 10, N-(3-(aminomethyl)benzyl)-4-hydroxybenzamide]	5 ± 1	26 ± 1	–	–
NCc1ccc(C(=O)NCc2cccc(CN)c2)cc1 [Example 11, 4-(aminomethyl)-N-(3-(aminomethyl)benzyl)benzamide]	17 ± 2	12 ± 1	–	–
NCc1cccc(CNC(=O)c2ccc(Br)cc2)c1 [Example 12, N-(3-(aminomethyl)benzyl)-4-bromobenzamide]	16 ± 2	46 ± 1	–	–
NCCc1ccc(F)cc1 [compound A, 2-(4-fluoro-phenyl)ethylamine]	–	–	markedly stimulated glucose transport	–
NCCCc1ccccc1 [compound B, 3-phenylpropylamine]	–	–	markedly stimulated glucose transport	–
NCc1ccc(F)cc1 [compound C, 4-fluoro-benzylamine]	–	–	markedly stimulated glucose transport	–
NCCCCc1ccccc1 [compound D, 4-phenylbutylamine]	–	–	markedly stimulated glucose transport	–
pentaquis(benzylammonium) decavanadate [Example B5V10]	–	–	pronounced stimulation on glucose transport	effect of semicarbazide on the stimulation of glucose transport (isolated rat adipocytes): blocked in the presence of semicarbazide; effect of semicarbazide on the stimulation of glucose transport (isolated rat adipocytes; listed as pentaquis(benzylammonium) decavanadate): this effect was inhibited
tetraquis(benzylammonium) decavanadate [Example B4V10]	–	–	pronounced stimulation on glucose transport	effect of semicarbazide on the stimulation of glucose transport (isolated rat adipocytes): blocked in the presence of semicarbazide; effect of semicarbazide on the stimulation of glucose transport (isolated rat adipocytes; listed as tetraquis(benzylammonium) decavanadate): this effect was inhibited
